Patent US20190048016A1, “SUBSTITUTED BRIDGED UREA ANALOGS AS SIRTUIN MODULATORS” (GlaxoSmithKline Intellectual Property(No.2)Limited, priority 2014, published 2019)

Target: T1, SIRT1 (Homo sapiens, UniProt Q96EB6)
T1 sequence (Q96EB6 1-747): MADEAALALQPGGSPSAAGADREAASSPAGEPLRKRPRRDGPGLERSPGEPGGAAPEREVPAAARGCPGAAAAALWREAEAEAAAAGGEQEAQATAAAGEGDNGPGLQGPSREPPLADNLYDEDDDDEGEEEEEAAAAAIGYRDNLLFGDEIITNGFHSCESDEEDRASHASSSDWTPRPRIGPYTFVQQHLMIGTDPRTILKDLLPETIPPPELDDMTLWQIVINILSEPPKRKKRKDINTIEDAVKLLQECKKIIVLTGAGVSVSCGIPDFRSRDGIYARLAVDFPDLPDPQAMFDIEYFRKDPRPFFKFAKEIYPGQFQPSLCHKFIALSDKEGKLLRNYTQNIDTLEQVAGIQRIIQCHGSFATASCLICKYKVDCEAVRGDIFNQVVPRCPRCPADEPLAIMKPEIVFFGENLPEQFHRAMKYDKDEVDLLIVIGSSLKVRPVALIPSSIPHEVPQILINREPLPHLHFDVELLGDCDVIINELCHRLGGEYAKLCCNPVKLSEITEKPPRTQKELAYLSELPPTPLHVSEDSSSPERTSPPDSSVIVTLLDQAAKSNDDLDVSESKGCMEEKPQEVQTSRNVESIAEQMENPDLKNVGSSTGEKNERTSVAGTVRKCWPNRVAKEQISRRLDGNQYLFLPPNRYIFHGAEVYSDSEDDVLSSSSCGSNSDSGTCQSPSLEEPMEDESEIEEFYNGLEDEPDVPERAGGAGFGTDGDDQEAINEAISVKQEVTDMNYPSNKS
Test: Trp mass spectrometry assay of SIRT1 activation (deacetylation of Ac-R-H-K-K(Ac)-W-NH2 peptide, OAADPR formation)
Assay type: biochemical
Conditions: Trp peptide 0.5 μM, 120 μM βNAD+, 10 nM SIRT1, 25 min, 25° C.; for Emax: 25 min, read-out: TRP MAX RESP (percent maximum fold activation relative to control = 100%)
Method in brief: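 10 nM His-tagged SIRT1 (E. coli expressed) with 0.5 μM Ac-RHKK(Ac)W-NH2 and 120 μM βNAD+, 25 min at 25° C, HEPES pH 7.5, […]; formic acid stop. OAADPR or deacetylated peptide measured by mass spectrometry; EC1.5 = concentration giving 150% activity versus DMSO control; maximum activation also reported.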

Structure (SMILES)	Emax	TRP Activity (EC1.5, concentration of compound required to increase SIRT1 activity by 50% over control)
Cc1cc(-c2ccc3c(n2)N(C(=O)Nc2cncc(F)c2)[C@H]2CCCN3C2)ccn1 [Example 5, (9S)-N-(5-fluoropyridin-3-yl)-2-(2-methylpyridin-4-yl)-8,9-dihydro-6H-5,9-methanopyrido[2,3-b][1,4]diazocine-10(7H)-carboxamide]	≥ 150%	A (EC1.5<1 μM)
Cc1cc(-c2nc3c(cc2C)N2CCC[C@@H](C2)N3C(=O)Nc2cccnc2)ccn1 [Example 68, (9S)-3-methyl-2-(2-methylpyridin-4-yl)-N-(pyridin-3-yl)-8,9-dihydro-6H-5,9-methanopyrido[2,3-b][1,4]diazocine-10(7H)-carboxamide]	≥ 150%	A (EC1.5<1 μM)
Cc1cc(-c2ccc3c(n2)N(C(=O)Nc2cncnc2)[C@H]2CCCN3C2)ccn1 [Example 16, (9S)-2-(2-methylpyridin-4-yl)-N-(pyrimidin-5-yl)-8,9-dihydro-6H-5,9-methanopyrido[2,3-b][1,4]diazocine-10(7H)-carboxamide]	≥ 150%	B (EC1.5 1-25 μM)
Cc1cc(-c2ccc3c(n2)N(C(=O)Nc2cnccn2)[C@H]2CCCN3C2)ccn1 [Example 13, (9S)-2-(2-methylpyridin-4-yl)-N-(pyrazin-2-yl)-8,9-dihydro-6H-5,9-methanopyrido[2,3-b] [1,4] diazocine-10(7H)-carboxamide]	≥ 150%	A (EC1.5<1 μM)
O=C(NCC(F)(F)F)c1nc2c(cc1Cl)N1CCC[C@@H](C1)N2C(=O)Nc1ccccn1 [Example 38, (9S)-3-chloro-N10-(pyridin-2-yl)-N2-(2,2,2-trifluoroethyl)-8,9-dihydro-6H-5,9-methanopyrido[2,3-b][1,4]diazocine-2,10(7H)-dicarboxamide]	≥ 150%	A (EC1.5<1 μM)
O=C(Nc1ccc(F)cn1)c1cc2c(nc1N1CCCC(C(F)(F)F)C1)N[C@H]1CCCN2C1 (single isomer, unassigned) [Example 58]	≤ 150%	–
Cc1cc(-c2ccc3c(n2)N(C(=O)Nc2nc(C)c(C)s2)[C@H]2CCCN3C2)ccn1 [Example 19, (9S)-N-(4,5-dimethylthiazol-2-yl)-2-(2-methylpyridin-4-yl)-8,9-dihydro-6H-5,9-methanopyrido[2,3-b][1,4]diazocine-10(7H)-carboxamide]	≥ 150%	A (EC1.5<1 μM)
Cc1ccc2c(NC(=O)N3c4nc(C(=O)NC5CC5(F)F)ccc4N4CCC[C@H]3C4)n[nH]c2n1 (single isomer, unassigned) [Example 48]	≥ 150%	A (EC1.5<1 μM)
O=C(Nc1ccccn1)N1c2nc(-c3cccc(C(F)(F)F)c3)c(Cl)cc2N2CCC[C@H]1C2 [Example 63, (9S)-3-chloro-N-(pyridin-2-yl)-2-(3-(trifluoromethyl)phenyl)-8,9-dihydro-6H-5,9-methanopyrido[2,3-b][1,4]diazocine-10(7H)-carboxamide]	≥ 150%	A (EC1.5<1 μM)
COc1cncc(NC(=O)N2c3nc(-c4ccnc(C)c4)ccc3N3CCC[C@H]2C3)n1 [Example 20, (9S)-N-(6-methoxypyrazin-2-yl)-2-(2-methylpyridin-4-yl)-8,9-dihydro-6H-5,9-methanopyrido[2,3-b][1,4]diazocine-10(7H)-carboxamide]	≥ 150%	A (EC1.5<1 μM)

The next lines start with the values.

Emax	TRP Activity (EC1.5, concentration of compound required to increase SIRT1 activity by 50% over control)	Structure (SMILES)
≥ 150%	A (EC1.5<1 μM)	O=C(Nc1ccc(OC[C@@H](O)CO)cn1)N1c2nc(-c3cccc(C(F)(F)F)c3)c(Cl)cc2N2CCC[C@H]1C2 [Example 74, (9S)-3-chloro-N-(5-((S)-2,3-dihydroxypropoxy)pyridin-2-yl)-2-(3-(trifluoromethyl)phenyl)-8,9-dihydro-6H-5,9-methanopyrido[2,3-b][1,4]diazocine-10(7H)-carboxamide]
≥ 150%	A (EC1.5<1 μM)	Cc1ncc(-c2ccnc(NC(=O)N3c4nc(C(=O)N[C@H](C)C(F)(F)F)ccc4N4CCC[C@H]3C4)c2)s1 [Example 44, (9S)-N10-(4-(2-methylthiazol-5-yl)pyridin-2-yl)-N2-((R)-1,1,1-trifluoropropan-2-yl)-8,9-dihydro-6H-5,9-methanopyrido[2,3-b][1,4]diazocine-2,10(7H)-dicarboxamide]
≥ 150%	A (EC1.5<1 μM)	O=C(Nc1cccc(OC[C@@H](O)CO)n1)N1c2nc(-c3cccc(C(F)(F)F)c3)c(Cl)cc2N2CCC[C@H]1C2 [Example 64, (9S)-3-chloro-N-(6-((S)-2,3-dihydroxypropoxy)pyridin-2-yl)-2-(3-(trifluoromethyl)phenyl)-8,9-dihydro-6H-5,9-methanopyrido[2,3-b][1,4]diazocine-10(7H)-carboxamide]
≥ 150%	A (EC1.5<1 μM)	Cc1cc2c(nc1-c1cccc(C(F)(F)F)c1)N(C(=O)Nc1cc(OC[C@H](O)CO)ccn1)[C@H]1CCCN2C1 [Example 91, (9S)-N-(4-((R)-2,3-dihydroxypropoxy)pyridin-2-yl)-3-methyl-2-(3-(trifluoromethyl)phenyl)-8,9-dihydro-6H-5,9-methanopyrido[2,3-b][1,4]diazocine-10(7H)-carboxamide]
≥ 150%	A (EC1.5<1 μM)	Cc1cc(C(=O)N[C@H](C)C(F)(F)F)nc2c1N1CCC[C@@H](C1)N2C(=O)Nc1cc(OC[C@H](O)CO)ccn1 [Example 57, (9S)-N10-(4-((R)-2,3-dihydroxypropoxy)pyridin-2-yl)-4-methyl-N2-((R)-1,1,1-trifluoropropan-2-yl)-8,9-dihydro-6H-5,9-methanopyrido[2,3-b][1,4]diazocine-2,10(7H)-dicarboxamide]
≥ 150%	A (EC1.5<1 μM)	C[C@@H](NC(=O)c1ccc2c(n1)N(C(=O)Nc1cc(OC[C@H](O)CO)ccn1)[C@H]1CCCN2C1)C(F)(F)F [Example 34, (9S)-N10-(4-((R)-2,3-dihydroxypropoxy)pyridin-2-yl)-N2-((R)-1,1,1-trifluoropropan-2-yl)-8,9-dihydro-6H-5,9-methanopyrido[2,3-b][1,4]diazocine-2,10(7H)-dicarboxamide]
≥ 150%	A (EC1.5<1 μM)	O=C(Nc1ccncn1)N1c2nc(-c3ccnc(C(F)(F)F)c3)ccc2N2CCC[C@H]1C2 [Example 9, (9S)-N-(pyrimidin-4-yl)-2-(2-(trifluoromethyl)pyridin-4-yl)-8,9-dihydro-6H-5,9-methanopyrido[2,3-b][1,4]diazocine-10(7H)-carboxamide]
≥ 150%	A (EC1.5<1 μM)	O=C(NC1CC1)c1ccc2c(n1)N(C(=O)Nc1ccccn1)[C@H]1CCCN2C1 [Example 36, (9S)-N2-cyclopropyl-N10-(pyridin-2-yl)-8,9-dihydro-6H-5,9-methanopyrido[2,3-b][1,4]diazocine-2,10(7H)-dicarboxamide]
≥ 150%	A (EC1.5<1 μM)	Cc1ncc(-c2ccnc(NC(=O)N3c4nc(C(=O)N[C@H](C)C(F)(F)F)c(Cl)cc4N4CCC[C@H]3C4)c2)o1 [Example 51, (9S)-3-chloro-N10-(4-(2-methyloxazol-5-yl)pyridin-2-yl)-N2-((R)-1,1,1-trifluoropropan-2-yl)-8,9-dihydro-6H-5,9-methanopyrido[2,3-b][1,4]diazocine-2,10(7H)-dicarboxamide]
≥ 150%	A (EC1.5<1 μM)	O=C(Nc1cc(OC[C@@H](O)CO)ncn1)N1c2nc(-c3cccc(C(F)(F)F)c3)c(Cl)cc2N2CCC[C@H]1C2 [Example 86]
≥ 150%	A (EC1.5<1 μM)	O=C(Nc1cnc(OC[C@@H](O)CO)cn1)N1c2nc(-c3cccc(C(F)(F)F)c3)c(Cl)cc2N2CCC[C@H]1C2 [Example 77, (9S)-3-chloro-N-(5-((S)-2,3-dihydroxypropoxy)pyrazin-2-yl)-2-(3-(trifluoromethyl)phenyl)-8,9-dihydro-6H-5,9-methanopyrido[2,3-b][1,4]diazocine-10(7H)-carboxamide]
